The subject of series [1] is hypoglossal motoneurons (HGN). As to the kind of experiment: Excitatory post-synaptic currents in HGNs evoked by photoexcitation of ChR2 fibers from LepR^b+ neurons. The format is cell-based, mouse.
In series [2] the test system is hypoglossal motoneurons (HGN). As to the kind of experiment: HGN firing per fictive inspiratory burst in bursting slice preparation. The format is cell-based, mouse. The note with it: DAMGO 500 nM; then leptin 200 nM with DAMGO; prior to DAMGO 3-5.
Series [3] concerns hypoglossal neurons (HGNs). As to the kind of experiment: Excitatory post-synaptic currents (EPSCs) recorded in vitro from HGNs. Format: cell-based, mouse. The note with it: for spontaneous excitatory post-synaptic currents (EPSCs) in HGNs: FIG. 7, DAMGO then leptin added to DAMGO; for EPSC frequency in HGNs: FIG. 16, n=7, DAMGO focally applied, then 200 nM leptin co-infusion.
Series [4] concerns DIO C57BL/6J mice.
Series [5] has as its system lean C57BL/6J mice. Put plainly: Barometric plethysmography during subcutaneous leptin infusion in lean mice. The format is in vivo, mouse. To be noted: SC osmotic pump leptin 0.2 mg/kg/hour. The text has this: Leptin increases minute ventilation, stimulates control of breathing and reverses UAO during sleep in leptin deficient ob/ob mice as shown in Pho et al., Journal of Applied Physiology 120, 78-86 (2016); Yao et al., Sleep 39, 1097-106 (2016); and O'Donnell et al., American Journal of Respiratory & Critical Care Medicine 159, 1477-1484 (1999), the disclosures of which are incorporated herein in their entirety. As such, it was proposed that high doses of leptin also stimulate ventilation and control of breathing in lean C57BL/6J mice. […] In six mice, a subcutaneous osmotic pump (DURECT, Cupertino, Calif., USA) filled with saline was implanted and baseline minute ventilation (VE) and the hypoxic ventilatory response (HVR) were measured by exposing mice to room air and 10% O2. […] VE normalized to body weight and the hypoxic ventilatory response (HVR) was calculated as the ratio of [VE (10% O2)−VE (20.9% O2) to the change in FiO2 (ΔFiO2=10.9% between normoxia and hypoxia) and reported as ΔVE/ΔFiO2. Subsequently, a subcutaneous osmotic pump for leptin infusion (0.2 mg/kg/hour) was implanted and the HVR was measured. […]

Series [6] is described as follows: Leptin detection in brain tissue by ELISA after IN administration. The format is in vivo, mouse. To be noted: IN leptin 0.8 mg/kg in 1% BSA, 20 minutes, vs IN vehicle. The method, then:
To determine the effect of intranasal (IN) leptin in the brain, leptin detection in brain tissue by ELISA was assessed after IN administration. In brief, male lean C57BL/6J mice (30 g of weight), were treated with IN leptin (24 μl) at 0.8 mg/kg in 1% BSA or 1% BSA and sacrificed 20 minutes later. Brains were extracted, then the olfactory bulbs, hypothalami and medullas were isolated, quick frozen in liquid nitrogen and stored at −80° C. For leptin level measurements, brain tissue was homogenized in 160 mM KCL, 25 mM HEPES, 0.2% Triton X-100 and protease inhibitors. Total protein concentrations were determined using a BioRad DC Protein kit and ELISA for leptin was performed with a Millipore kit.
(In general: ELISA stands for enzyme-linked immunosorbent assay.)

For series [7], the system named is DIO C57BL/6J mice. As to the kind of experiment: Sleep study (plethysmography) in diet-induced obese mice, mouse model of OSA. Format: in vivo. The note with it: IN leptin 0.4 mg/kg single dose.
Series [8] concerns STAT3 phosphorylation (pSTAT3) via LepR^b. As to the kind of experiment: Leptin signaling by STAT3 phosphorylation (pSTAT3) immunofluorescent staining of brain sections. The format is in vivo, mouse. To be noted: DIO mice.
Series [9] has as its system LepR^b+ neurons in the dorsomedial hypothalamus (DMH). Format: cell-based, mouse.
Series [10] deals with lean C57BL/6J mice. Put plainly: Blood pressure by telemetry during SC leptin infusion. Format: in vivo, mouse. The method, then: Blood pressure was measured by telemetry (DSI) implanted in the left femoral artery of freely behaving lean C57BL/6J mice at baseline and during leptin infusion (120 μg/day for 3 days via a SC pump) before and after carotid body (CB) denervation or sham surgery.

Series [11] in a line: Plasma leptin levels after IN and IP leptin. Format: in vivo, mouse. The note with it: IN leptin, 1, 3 and 6 hours vs baseline, n=4. The method, then: FIG. 18 depicts a graph showing plasma leptin levels measured 1, 3, and 6 hours after IN and IP leptin administrations, as compared to baseline, n=4, for each treatment. *p<0.05.
Where [12] appears, read: SC leptin 120 μg/day for 3 days.

This is an account of results in patent US20220273768A1 (The George Washington University, priority 2019, published 2022).

Read-outs that look alike come from different tables or passages of the source.

Regarding `N[C@H](CCCP(=O)(O)O)C(=O)O` [APV, (2R)-amino-5-phosphonovaleric acid], the “photoexcitation-evoked excitatory post-synaptic currents in HGNs” value in [1] is “blunted, but not blocked”.
For `N#Cc1cc2c(cc1[N+](=O)[O-])=NC(=O)C(=O)N=2` [CNQX, 6-cyano-7-nitroquinoxaline-2,3-dione], in series [1] (50 μM APV and 50 μM CNQX applied together), the “photoexcitation-evoked excitatory post-synaptic currents in HGNs” value is “blunted, but not blocked”.
For the compound `C[C@@H](NC(=O)[C@@H](N)Cc1ccc(O)cc1)C(=O)NCC(=O)N(C)[C@@H](Cc1ccccc1)C(=O)NCCO` [DAMGO, [D-Ala^2, N-MePhe^4, Gly-ol]-enkephalin, reference compound], in series [2], the “action potentials in HGNs associated with each burst” value is on record as 2-3 action potentials. In series [3], the “spontaneous excitatory post-synaptic currents (EPSCs) in HGNs” value is listed as “rapidly depressed” and the “EPSC frequency in HGNs” value is recorded as “significantly reduced”.
For the compound `CN1CC[C@]23c4c5ccc(O)c4O[C@H]2[C@@H](O)C=C[C@H]3[C@H]1C5` [morphine, reference compound], in the series on DIO C57BL/6J mice [4] (FIG. 3B experiment, DIO mice n=4, morphine 10 mg/kg), the “IFL prevalence (frequency of upper airway obstruction)” value was 39.6±9.3 % of all breaths. In the series on DIO C57BL/6J mice [4] (FIG. 3C, DIO mice n=4, morphine 10 mg/kg), the “maximal inspiratory flow (Vimax) during IFL” value is recorded as “decreasing”. In addition, the “minute ventilation during IFL (VE IFL)” value in the series with DIO C57BL/6J mice [4] (FIG. 3D, DIO mice n=4, morphine 10 mg/kg) is “decreasing”. Moreover, the “respiratory rate during NFL breathing” value in the series on DIO C57BL/6J mice [4] (FIG. 3E experiment, morphine 10 mg/kg) is “decreased”. The “non-flow limited breathing (NFL), respiratory depression” value in the series on DIO C57BL/6J mice [4] (FIG. 3E, DIO mice n=4, morphine 10 mg/kg) is given as “suppressed”. The “respiratory depression (minute ventilation, VE)” value in the series on DIO C57BL/6J mice [4] (IP morphine 80 mg/kg, DIO mice) is “induced respiratory depression”. The “number of apneic events during NREM sleep” value in the series with DIO C57BL/6J mice [4] (NREM sleep, n=9, morphine 10 mg/kg, baseline 13.9±3.7) was determined as 91.5±20.0. Moreover, the “frequency of upper airway obstruction (IFL breaths), NREM sleep” value in the series on DIO C57BL/6J mice [4] (morphine 10 mg/kg, baseline 11.9±5.5%) is reported as 56.8±4.8 % of all breaths. The “minute ventilation during obstructed (IFL) breathing, NREM sleep” value with DIO C57BL/6J mice [4] (n=5, morphine 10 mg/kg) is reported as “significantly decreased”. Further, the “maximal inspiratory flow (Vimax) during obstructed (IFL) breathing, NREM sleep” value with DIO C57BL/6J mice [4] (n=5, morphine 10 mg/kg, baseline 3.4±0.4) was determined as 2.3 ± 0.5 mL/min. In addition, the “minute ventilation (VE), non-flow limited respiration, NREM sleep” value with DIO C57BL/6J mice [4] (n=9, morphine 10 mg/kg, baseline 1.2±0.1) was determined as 0.7 ± 0.1 mL/min/g. The “inspiratory flow limitation (IFL)” value with DIO C57BL/6J mice [4] (sub-lethal IP morphine 80 mg/kg, DIO mice) is listed as “induced severe inspiratory flow limitation”.
leptin: in the series on lean C57BL/6J mice [5] (10% O2 vs room air, saline pump 0.23), the “hypoxic ventilatory response (HVR, ΔVE/ΔFiO2)” value is listed as 0.31 ml/minutes/grams/ΔFiO2. Moreover, in the series with lean C57BL/6J mice [5] (wakefulness, saline pump 1.1), the “minute ventilation (VE)” value is on record as 1.5 ml/minutes/grams. Further, in series [6], the “leptin levels in the hypothalamus” value is “strong increase”, the “leptin levels in the medulla” value was “significantly increased” and the “leptin levels in the olfactory bulb” value is listed as “significantly increased”. In the series on DIO C57BL/6J mice [7], the “ODI (number of oxyhemoglobin desaturations ≥4%/hour)” value is given as “dramatic decrease”, the “maximal inspiratory flow (Vimax) during flow limited obstructed breathing” value is given as “increased”, the “minute ventilation (VE) during flow limited obstructed breathing” value is “increased” and the non-flow limited breathing entry is reported as “increased”. In addition, the “signaling (STAT3 phosphorylation) in dorsal medulla, RVLM, CC, DMV, NA, XII” value in series [8] (IN leptin single dose, one hour) is “increased”. Moreover, the “number of pSTAT3-positive cells in the hypothalamus and medulla” value in series [8] (IN leptin vs IP leptin and vehicle groups) was “highest”. The “signaling (STAT3 phosphorylation) in dorsal medulla or RVLM” value in [8] (IP leptin single dose, one hour) is “no effect”. For the same compound, the “effect on LepR^b+ neurons (firing)” value in [9] is on record as “excited”. In series [2], the “action potentials in HGNs associated with each burst” value is reported as 3-4 action potentials. Further, in series [3], the “spontaneous excitatory post-synaptic currents (EPSCs) in HGNs” value is listed as “successfully reversed” and the “EPSC frequency in HGNs” value is reported as “restored”. Also, in the series with lean C57BL/6J mice [10] (setting [12]), the “increase in blood pressure at night” value is 16 mm Hg and the “increase in blood pressure during the day (9 am-9 pm, light phase)” value is given as 13 mm Hg. For the same compound, the “leptin-mediated increase in blood pressure after carotid body (CB) denervation” value in the series with lean C57BL/6J mice [10] (SC leptin 120 μg/day, not abolished by sham surgery) is reported as “completely abolished”. The plasma leptin levels result in series [11] is given as “did not increase”. In the series with DIO C57BL/6J mice [4] (mouse, in vivo), the “IFL prevalence (frequency of upper airway obstruction)” value is “decreased”; the “apnea-hypopnea index (AHI)” value is listed as “dramatically reduced”; the “frequency of upper airway obstruction (IFL breaths), NREM sleep” value was “decreased”; the “inspiratory flow limitation (IFL)” value is on record as “markedly improved”. Also, in the series with DIO C57BL/6J mice [4] (mouse, in vivo), the “leptin effects on apneas, VE, IFL frequency, VImax and VE during IFL” value was “no longer significant”; the “maximal inspiratory flow (Vimax) during IFL” value is given as “increases”; the “maximal inspiratory flow (Vimax) during obstructed (IFL) breathing, NREM sleep” value is listed as “reversals of morphine-induced reductions”; the “minute ventilation (VE), non-flow limited respiration, NREM sleep” value is on record as “increase”. Also, in the series on DIO C57BL/6J mice [4] (mouse, in vivo), the “minute ventilation during IFL (VE IFL)” value is “increases”; the “minute ventilation during obstructed (IFL) breathing, NREM sleep” value is on record as “reversals of morphine-induced reductions”; the “non-flow limited breathing (NFL), respiratory depression” value is recorded as “prevented”; the “number of apneic events during NREM sleep” value is listed as “decreased”. Moreover, in the series with DIO C57BL/6J mice [4] (mouse, in vivo), the “respiratory depression (minute ventilation, VE)” value is recorded as “prevented”; the respiratory rate result is recorded as “increasing”; the “respiratory rate during NFL breathing” value is given as “did not change”; the “tidal volume (VT)” value was “increasing”. The “tidal volume during NFL breathing” value in the series on DIO C57BL/6J mice [4] (mouse, in vivo) was 0.44±0.03.
